Measurements taken from patent US20250092383A1, “COMPOUNDS AND METHODS FOR FBXO22-MEDIATED PROTEIN DEGRADATION” (Northwestern University, priority 2023, published 2025).

How the values were obtained:
FKBP12-EGFP = biological target: T1, FKBP12-EGFP (Homo sapiens, UniProt P62942); assay: E3 ligase focused CRISPR-Cas9 transcriptional activation screen for FKBP12-EGFP degradation; type: cell-based; conditions: 2 μM 22-SLF, 24 hours, HEK293T CRISPR-Cas9 transcriptional activation cells
T1 construct: expressed in transfected cells
T1 sequence (P62942 whole entry): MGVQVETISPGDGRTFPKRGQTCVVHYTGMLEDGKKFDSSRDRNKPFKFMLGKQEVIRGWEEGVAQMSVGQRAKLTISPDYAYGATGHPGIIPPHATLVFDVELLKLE
Method: FIGS. 1A-1E show an E3 ligase focused CRISPR-Cas9 transcriptional activation screen identifies FBXO22 that supports 22-SLF-induced reduction in FKBP12-EGFP expression levels. FIG. 1A is a schematic representation of the steps in the CRISPR-Cas9 transcriptional activation screen. […] FIG. 1C is a volcano plot showing the E3 ligase focused CRISPR-Cas9 transcriptional activation screen for FKBP12-EGFP degradation after treatment of 2 μM 22-SLF in HEK293T CRISPR-Cas9 transcriptional activation cells for 24 hours. […] The statistical significance was evaluated through unpaired two-tailed Student's t-tests, comparing cells transduced with FBXO22 sgRNA to control sgRNA. Statistical significance denoted ****P<0.0001. […] The statistical significance was evaluated through unpaired two-tailed Student's t-tests, comparing cells treated with 22-SLF to DMSO. Statistical significance denoted as ***P<0.001 and ns: not significant.
With the CRISPR-Cas9 transcriptional activation cells, a CRISPR-Cas9 transcriptional activation pool screen was developed to identify E3 ligases that support FKBP12 degradation by FKBP12-directed heterobifunctional compounds. […] Subsequently, cells from the bottom 15% of the GFP population were isolated using fluorescence-activated cell sorting (FIG. 1a and FIG. 7). […]

FKBP12 = FKBP12 (Homo sapiens, UniProt P62942); assay: Western blot of FLAG-FKBP12 degradation in HEK293T cells expressing HA-FBXO22; type: cell-based; set-up: expressed in transfected cells; host or cells: HEK293T
FKBP12, sequence (P62942 whole entry): as above
Method: The bar graph represents quantification of the FLAG-FKBP12/HSP90 protein content. Data are presented as the mean values±s.e.m. […] HEK293T cells expressing HA-FBXO22 were treated with 0.025-15 μM 22-SLF for 8 h. The graph represents quantification of the FLAG-FKBP12/HSP90 protein content. Data are presented as the mean values (n=2 biological independent samples). […] The bar graph represents quantification of the FLAG-FKBP12/HSP90 protein content. KO, knockout; WT, wild type. Data are presented as the mean values (n=2 biological independent samples). […] The bar graph represents quantification of the FLAG-FKBP12/HSP90 protein content. Data are presented as the mean values±s.e.m. […] The result is representative of two independent experiments with similar results. WCL, whole-cell lysate; IP, immunoprecipitate.
FIGS. 3A-3H show FBXO22 C227 and C228 are involved in 22-SLF-mediated degradation of FKBP12. […] Among 5,650 quantified IA-DTB-modified peptides, four cysteines were identified on FBXO22 (C83, C117, C228, and C365). […] Data are presented as the mean values (n=2 biological independent samples for DMSO treatment; n=3 biological independent samples for 22-SLF Treatment). […] The bag graph represents quantification of the FLAG-FKBP12/HSP90 protein content. Data are presented as mean values (n=2 biological independent samples). […] The bar graph represents quantification of the FLAG-FKBP12/HSP90 protein content. Data are presented as the mean values (n=2 biological independent samples).
FIG. 11A-11B show the acrylamide variant of 22-SLF, 22a-SLF, induced the degradation of FKBP12. […] HEK293T cells expressing HA-FBXO22 were treated with 0.5, 1, or 2 μM of 22-SLF or 22a-SLF for 8 hours. The graph represents quantification of the FLAG-FKBP12/HSP90 protein content. Data are presented as mean values (n=2 biological independent samples).
Next, Western blot analysis was used to measure the degradation of FKBP12 induced by 22-SLF. To achieve this, FLAG-tagged FKBP12 and HA-tagged FBXO22 were stably overexpressed in HEK293T cells, followed by subjecting the cells to varying concentrations of 22-SLF. […] Moreover, 22-SLF's effect on FLAG-FKBP12 degradation was concentration-dependent (FIG. 2a). […] The rescue enabled by MLN4924 indicates the involvement of a Cullin-RING ligase (CRL) in the degradation process. This is consistent with FBXO22 belonging to SKP1-CUL1-F-box protein (SCF) ubiquitin ligase complexes, a subfamily of CRL. […] To provide a more comprehensive insight into 22-SLF-induced FKBP12 degradation, a dose-dependent degradation experiment using 11 concentrations of 22-SLF ranging from […] to 15 μM was conducted. This experiment enabled determination of two parameters, the Dmax value, which reached 89%, and the half-maximal degradation concentration (DC50) value, which measured at 0.5 μM (FIG. 2B). […] Collectively, this array of data supports the canonical mechanism of ligand-induced protein degradation. In this mechanism, 22-SLF orchestrates the recruitment of FBXO22 to FKBP12, culminating in the proteasomal degradation of FKBP12.
To identify the cysteine residue(s) in FBXO22 engaged with 22-SLF, HA-FBXO22-expressing HEK293T cells were treated with either DMSO or 22-SLF (2 μM, 2 hours). Using competitive cysteine-directed activity-based protein profiling (ABPP), a chemical proteomics for the measurement of target engagement, the degree of blockade of iodoacetamide-desthiobiotin (IA-DTB)-modified cysteines on FBXO22 was quantified. From a pool of 5,650 quantified IA-DTB-modified peptides, four cysteines on FBXO22 (C83, C117, C228, and C365) (FIG. 3a) were identified, with approximately 20% of FBXO22 C228 being blocked by 22-SLF treatment (FIG. 3b), indicating the potential interaction with this cysteine by 22-SLF. Consequently, C228 was mutated to alanine and HA-FBXO22 C228A-expressing HEK293T cells were generated (FIG. 3c). […]

CCC(C)(C)C(=O)C(=O)N1CCCC[C@H]1C(=O)O[C@H](CCc1ccc(OC)c(OC)c1)c1cccc(OCC(=O)NCCCOCCOCCOCCCN(C(=O)CCl)C(C(=O)NCc2ccccc2)c2nc3ccccc3s2)c1 (some centres unmarked) [22-SLF]
Enrichment of sgRNAs in sorted low-GFP cells (FKBP12-EGFP): substantial enrichment of two distinct sgRNAs targeting the same E3 ligase, FBXO22 | DC50 (FKBP12; 11 concentrations, 0.25 to 15 μM, 8 h, HEK293T expressing HA-FBXO22, read-out: half-maximal degradation concentration (DC50)): 500 nM | Concentration dependence of FLAG-FKBP12 degradation (FKBP12; HEK293T cells expressing HA-FBXO22): concentration-dependent | FKBP12 degradation with FBXO22 double mutant C227AC228A (FKBP12; HEK293T cells expressing the variant): completely blocked | FKBP12 degradation with FBXO22 single mutants C227A and C228A (FKBP12; HEK293T cells expressing the variants): partially impeded | Loss of FLAG-FKBP12 expression in cells lacking HA-FBXO22 (FKBP12; HEK293T cells without HA-FBXO22): no reduction was observed | Dmax (FKBP12; HEK-293T, 11 concentrations, 0.25 to 15 μM, 8 h, HEK293T expressing HA-FBXO22): 89% | Time to nearly complete FLAG-FKBP12 degradation (FKBP12; time course): ≤ 2 h
